Results from patent publication US20250249006A1, “TREATMENT” (Verona Pharma PLC, priority 2024, published 2025).

Legend:
Assay type in all cases: in vivo
[1] = system: patients aged 40-80 years with moderate to severe COPD; assay: Clinical studies, ensifentrine vs placebo: quality of life responders (SGRQ −4 units) in patients with low FEV1 response; conditions: for Odds in favor of a response, SGRQ (−4 Unit) Responders / Ensifentrine vs. Placebo Odds Ratio, SGRQ (−4 Unit) Responders: logistic regression; for Odds in favor of a response, SGRQ (−4 Unit) Responders / Ensifentrine vs. Placebo Odds Ratio, SGRQ (−4 Unit) Responders / % SGRQ (−4 Unit) Responders / % responders, SGRQ (−4 Units) Responders / Ensifentrine v placebo Odds Ratio, SGRQ (−4 Units) Responders / Odds in favour of response, SGRQ (−4 Units) Responders: pooled mITT; for % SGRQ (−4 Unit) Responders / % responders, SGRQ (−4 Units) Responders: 3 mg BID nebuliser; for % responders, SGRQ (−4 Units) Responders / Ensifentrine v placebo Odds Ratio, SGRQ (−4 Units) Responders / Odds in favour of response, SGRQ (−4 Units) Responders: improvement in morning trough FEV1 less than 40 mL (table line prints <60 mL); for proportion of patients with a clinically important improvement in QoL: over 24 weeks
Protocol: (§1) Clinical studies were conducted to determine the efficacy of ensifentrine in treating COPD compared with placebo. Ensifentrine was administered by nebuliser at a dose of 3 mg twice daily (BID) for 24 weeks. The studies were multi-centre, randomized, double-blind, parallel-group, placebo-controlled trials.
(§2) The study population included patients aged 40-80 years with moderate to severe COPD (FEV1 30%-70% p.n., FEV1/forced vital capacity (FVC) ratio<0.7, with mMRC≥2). The randomization stratified (a) the use of stable background maintenance LAMA or LABA therapy use (approx. 50%. yes or no) and (b) cigarette smoking (current or former). Inhaled corticosteroid (ICS) maintenance therapy was permitted in up to 20% of patients under certain provisions.
The primary endpoint was change from baseline in average FEV1 area under the curve AUC0-12h post-dose at week 12. Also assessed were COPD symptoms and quality of life (QoL) in patients showing lower responses in terms of lung function, and in particular patients with: (i) improvement in average FEV1 AUC0-12h of less than 100 mL and (ii) improvement in morning trough FEV1 of less than 100 mL, less than 60 mL or less than 40 mL.
COPD symptoms were assessed using Evaluating Respiratory Symptoms (E-RS; EXACT-Respiratory Symptoms, The minimal clinically important difference (MCID) of the E-RS is a total score of −2 units. User Manual (Version 3.0), October 2014) and Transitional Dyspnea Index (TDI; Mahler et al, The MCID of the transition dyspnea index is a total score of one unit. COPD 2005, 2:99-103.) and QoL was assessed using the St. George's Respiratory Questionnaire (SGRQ; Jones, St. George's Respiratory Questionnaire: The MCID of the SGRQ is a total score of −4 units. COPD 2005, 2:75-79.).

[2] = system: patients aged 40-80 years with moderate to severe COPD; assay: Clinical studies, ensifentrine vs placebo: lung function (average FEV1 AUC0-12h)
Protocol: as §1, §2
The primary endpoint was change from baseline in average FEV1 area under the curve AUC0-12h post-dose at week 12. Also assessed were COPD symptoms and quality of life (QoL) in patients showing lower responses in terms of lung function, and in particular patients with: (i) improvement in average FEV1 AUC0-12h of less than 100 mL and (ii) improvement in morning trough FEV1 of less than 100 mL, less than 60 mL or less than 40 mL. […]
Average FEV1 AUC0-12h is defined as area under the curve over 12 hours of the FEV1, divided by 12 hours. […] Morning trough FEV1 is defined as the FEV1 assessed at 11.5 to 12 hours following the prior evening dose.

[3] = system: patients aged 40-80 years with moderate to severe COPD; assay: Clinical studies, ensifentrine vs placebo: moderate/severe COPD exacerbations; conditions: nominally statistically significant
Protocol: as §1, §2
COPD exacerbations were defined as worsening of 2 or more major symptoms (dyspnea, sputum volume, and sputum purulence) or worsening of any 1 major symptom together with any 1 of the following minor symptoms: sore throat, colds, fever without other cause, and increased cough or wheeze for at least 2 consecutive days. COPD exacerbations were considered to be of moderate severity if treatment with systemic corticosteroids and/or antibiotics was required and were considered to be severe if hospitalization was required.

[4] = average FEV1 AUC0-12h <100 mL at Week 12, Week 12
[5] = average FEV1 AUC0-12h <100 mL at Week 12, Week 24
[6] = morning trough FEV1 <60 mL at Week 6, Week 6
[7] = morning trough FEV1 <60 mL at Week 12, Week 12
[8] = morning trough FEV1 <60 mL at Week 24, Week 24
[9] = morning trough FEV1 <100 mL at Week 6, Week 6
[10] = morning trough FEV1 <100 mL at Week 12, Week 12
[11] = morning trough FEV1 <100 mL at Week 24, Week 24

COc1cc2c(cc1OC)-c1c/c(=N\c3c(C)cc(C)cc3C)n(CCNC(N)=O)c(=O)n1CC2 [Ensifentrine, N-(2-{(2E)-9,10-dimethoxy-4-oxo-2-[(2,4,6-trimethylphenyl)imino]-6,7-dihydro-2H-pyrimido[6,1-a]isoquinolin-3(4H)-yl}ethyl)urea]
Odds in favor of a response, SGRQ (−4 Unit) Responders ([1]; average FEV1 AUC0-12h <100 mL at Week 12, Week 6): 1.10 | Ensifentrine vs. Placebo Odds Ratio, SGRQ (−4 Unit) Responders [1, 4]: 1.31 | Odds in favor of a response, SGRQ (−4 Unit) Responders [1, 4]: 0.92 | Ensifentrine vs. Placebo Odds Ratio, SGRQ (−4 Unit) Responders [1, 5]: 1.04 | Odds in favor of a response, SGRQ (−4 Unit) Responders [1, 5]: 0.95 | % SGRQ (−4 Unit) Responders ([1]; average FEV1 AUC0-12h <100 mL at Week 12, responders at Week 6): 45.4% | % SGRQ (−4 Unit) Responders ([1]; average FEV1 AUC0-12h <100 mL at Week 12, responders at Week 12): 45.4% | % SGRQ (−4 Unit) Responders ([1]; average FEV1 AUC0-12h <100 mL at Week 12, responders at Week 24): 48.5% | % responders, SGRQ (−4 Units) Responders ([1]; Week 6): 42.6% | Ensifentrine v placebo Odds Ratio, SGRQ (−4 Units) Responders ([1]; Week 6): 1.260 | Odds in favour of response, SGRQ (−4 Units) Responders ([1]; Week 6): 0.903 | % responders, SGRQ (−4 Units) Responders ([1]; Week 12): 44.7% | Ensifentrine v placebo Odds Ratio, SGRQ (−4 Units) Responders ([1]; Week 12): 1.316 | Odds in favour of response, SGRQ (−4 Units) Responders ([1]; Week 12): 0.802 | % responders, SGRQ (−4 Units) Responders ([1]; Week 24): 48.7% | Ensifentrine v placebo Odds Ratio, SGRQ (−4 Units) Responders ([1]; Week 24): 1.138 | Odds in favour of response, SGRQ (−4 Units) Responders ([1]; Week 24): 0.797 | proportion of patients with a clinically important improvement in QoL ([1]; increase in average FEV1 AUC0-12h less than 100 mL at Week 12): half | proportion of patients with a clinically important improvement in QoL ([1]; increase in morning trough FEV1 less than 100 mL at Week 12): half | Ensifentrine vs. Placebo Odds Ratio, SGRQ (−4 Unit) Responders [1, 6]: 1.25 | Odds in favor of a response, SGRQ (−4 Unit) Responders [1, 6]: 0.98 | % SGRQ (−4 Unit) Responders ([1]; morning trough FEV1 <60 mL at Week 6, responders at Week 6): 43.4% | Ensifentrine vs. Placebo Odds Ratio, SGRQ (−4 Unit) Responders [1, 7]: 1.28 | Odds in favor of a response, SGRQ (−4 Unit) Responders [1, 7]: 0.82 | % SGRQ (−4 Unit) Responders ([1]; morning trough FEV1 <60 mL at Week 12, responders at Week 12): 45.1% | Ensifentrine vs. Placebo Odds Ratio, SGRQ (−4 Unit) Responders [1, 8]: 1.07 | Odds in favor of a response, SGRQ (−4 Unit) Responders [1, 8]: 0.79 | % SGRQ (−4 Unit) Responders ([1]; morning trough FEV1 <60 mL at Week 24, responders at Week 24): 48.2% | Ensifentrine vs. Placebo Odds Ratio, SGRQ (−4 Unit) Responders [1, 9]: 1.29 | Odds in favor of a response, SGRQ (−4 Unit) Responders [1, 9]: 1.09 | % SGRQ (−4 Unit) Responders ([1]; morning trough FEV1 <100 mL at Week 6, responders at Week 6): 45.0% | Ensifentrine vs. Placebo Odds Ratio, SGRQ (−4 Unit) Responders [1, 10]: 1.34 | Odds in favor of a response, SGRQ (−4 Unit) Responders [1, 10]: 0.80 | % SGRQ (−4 Unit) Responders ([1]; morning trough FEV1 <100 mL at Week 12, responders at Week 12): 46.3% | Ensifentrine vs. Placebo Odds Ratio, SGRQ (−4 Unit) Responders [1, 11]: 1.03 | Odds in favor of a response, SGRQ (−4 Unit) Responders [1, 11]: 0.77 | % SGRQ (−4 Unit) Responders ([1]; morning trough FEV1 <100 mL at Week 24, responders at Week 24): 48.1% | primary endpoint of average FEV1 (AUC)0-12h ([2]; Week 12, 3 mg BID nebuliser vs placebo): met | improvement in lung function ([2]; all subgroups): statistically significant | reduction in moderate/severe exacerbation rate and risk (time to first event) vs placebo ([3]; patients with improvement in average FEV1 AUC0-12h less than 100 mL): 37% | reduction in moderate/severe exacerbation rate and risk (time to first event) vs placebo ([3]; patients with improvement in morning trough FEV1 less than 100 mL): approximately 40%
